Source: patent US10160762B2, “6-alkyl dihydropyrazolopyrimidinone compounds as PDE2 inhibitors” (Merck Sharp & Dohme Corp., priority 2015, dated 2018)

Target: T1, human PDE2A1 (Homo sapiens, UniProt O00408)
T1 construct: GST; purchased BPS Bioscience (San Diego, Calif.) 60020; host or cells: insect cells
Assay: IMAP FP PDE assay, human PDE2A1
Assay type: biochemical
Details: Lab A; read-out: Human PDE2 Ki (nM) Lab A
How it was run: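 GST-tagged human PDE2A1 from insect cells; substrate 50 nM FAM-cAMP containing 1000 nM cGMP in Tris pH 7.2/MgCl2/DTT buffer, enzyme giving 20% conversion. 60 min at room temperature, IMAP binding reagent, fluorescence polarization read. Apparent Ki from FP readings using apparent KM 10,000 nM; ten-point 3-fold titrations.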

T1 sequence (O00408 1-920 isoform O00408-2): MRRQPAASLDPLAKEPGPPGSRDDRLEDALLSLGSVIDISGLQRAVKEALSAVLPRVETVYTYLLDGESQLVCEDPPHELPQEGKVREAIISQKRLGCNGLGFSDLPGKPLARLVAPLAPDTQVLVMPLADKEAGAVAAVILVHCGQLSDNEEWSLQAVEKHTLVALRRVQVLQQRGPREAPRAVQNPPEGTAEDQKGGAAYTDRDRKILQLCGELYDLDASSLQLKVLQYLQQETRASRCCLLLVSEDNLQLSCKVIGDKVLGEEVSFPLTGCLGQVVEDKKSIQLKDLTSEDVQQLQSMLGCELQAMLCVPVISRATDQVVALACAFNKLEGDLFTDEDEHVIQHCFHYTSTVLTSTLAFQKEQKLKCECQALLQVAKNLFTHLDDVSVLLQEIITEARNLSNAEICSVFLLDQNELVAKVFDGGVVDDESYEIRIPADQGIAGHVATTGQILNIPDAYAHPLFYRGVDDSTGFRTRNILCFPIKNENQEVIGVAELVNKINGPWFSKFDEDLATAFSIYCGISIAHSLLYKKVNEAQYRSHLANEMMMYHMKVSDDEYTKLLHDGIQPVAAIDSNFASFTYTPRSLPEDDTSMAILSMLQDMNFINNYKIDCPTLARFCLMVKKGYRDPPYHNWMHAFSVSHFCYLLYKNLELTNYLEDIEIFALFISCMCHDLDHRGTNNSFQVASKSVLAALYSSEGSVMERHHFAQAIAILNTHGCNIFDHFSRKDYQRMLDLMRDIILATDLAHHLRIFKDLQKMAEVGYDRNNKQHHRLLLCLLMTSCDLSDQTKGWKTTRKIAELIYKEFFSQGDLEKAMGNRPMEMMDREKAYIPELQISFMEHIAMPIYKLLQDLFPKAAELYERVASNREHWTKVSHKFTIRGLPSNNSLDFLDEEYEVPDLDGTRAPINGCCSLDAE

Point of comparison: Cc1nc2c(c(C(C)(C)O)nn2C(C)c2ccc(C(F)(F)F)cc2)c(=O)[nH]1 (stereo not shown) [Example 326, 3-(1-Hydroxy-1-methylethyl)-6-methyl-1-{1-[4-(trifluoromethyl)phenyl]ethyl}-1,5-dihydro-4H-pyrazolo[3,4-d]pyrimidin-4-one], Ki 70 nM. Against it:
- Cc1nn(C(C)c2ccc(C(F)(F)F)cc2)c2nc(C3CCC3)[nH]c(=O)c12 (stereo not shown) [Example 39, 6-Cyclobutyl-3-methyl-1-{1-[4-(trifluoromethyl)phenyl]ethyl}-1,5-dihydro-4H-pyrazolo[3,4-d]pyrimidin-4-one] — within 1.5-fold, 84 nM
- Cc1nn(C(C)c2ccc(C(F)(F)F)cc2)c2nc(C3CCCC3)[nH]c(=O)c12 (stereo not shown) [Example 40, 6-Cyclopentyl-3-methyl-1-{1-[4-(trifluoromethyl)phenyl]ethyl}-1,5-dihydro-4H-pyrazolo[3,4-d]pyrimidin-4-one] — 2.8-fold higher, 197 nM
- CCCc1nc2c(c(C)nn2C(C)c2ccc(C(F)(F)F)cc2)c(=O)[nH]1 (stereo not shown) [Example 41, 3-Methyl-6-propyl-1-{1-[4-(trifluoromethyl)phenyl]ethyl}-1,5-dihydro-4H-pyrazolo[3,4-d]pyrimidin-4-one] — 2-fold lower, 35 nM
- Cc1nn(C(C)c2ccc(C(F)(F)F)cc2)c2nc(C3CC3)[nH]c(=O)c12 (stereo not shown) [Example 42, 6-Cyclopropyl-3-methyl-1-{1-[4-(trifluoromethyl)phenyl]ethyl}-1,5-dihydro-4H-pyrazolo[3,4-d]pyrimidin-4-one] — 1.8-fold lower, 40 nM
- Cc1nn(C(C)c2ccc(C(F)(F)F)cc2)c2nc(C(C)C)[nH]c(=O)c12 (stereo not shown) [Example 43, 3-Methyl-6-(1-methylethyl)-1-{1-[4-(trifluoromethyl)phenyl]ethyl}-1,5-dihydro-4H-pyrazolo[3,4-d]pyrimidin-4-one] — 1.9-fold higher, 132 nM
- COc1ccc(Cc2nc3c(c(C)nn3C(C)c3ccc(C(F)(F)F)cc3)c(=O)[nH]2)cc1OC (stereo not shown) [Example 44, 6-(3,4-Dimethoxybenzyl)-3-methyl-1-{1-[4-(trifluoromethyl)phenyl]ethyl}-1,5-dihydro-4H-pyrazolo[3,4-d]pyrimidin-4-one] — 33-fold lower, 2.1 nM
- COc1cccc(Cc2nc3c(c(C)nn3C(C)c3ccc(C(F)(F)F)cc3)c(=O)[nH]2)c1 (stereo not shown) [Example 45, 6-(3-Methoxybenzyl)-3-methyl-1-{1-[4-(trifluoromethyl)phenyl]ethyl}-1,5-dihydro-4H-pyrazolo[3,4-d]pyrimidin-4-one] — 3.2-fold lower, 22 nM
- COc1ccc(Cc2nc3c(c(C)nn3C(C)c3ccc(C(F)(F)F)cc3)c(=O)[nH]2)cc1 (stereo not shown) [Example 46, 6-(4-Methoxybenzyl)-3-methyl-1-{1-[4-(trifluoromethyl)phenyl]ethyl}-1,5-dihydro-4H-pyrazolo[3,4-d]pyrimidin-4-one] — 8.1-fold lower, 8.6 nM
- COc1cccc(-c2nc3c(c(C)nn3C(C)c3ccc(C(F)(F)F)cc3)c(=O)[nH]2)c1 (stereo not shown) [Example 47, 6-(3-Methoxyphenyl)-3-methyl-1-{1-[4-(trifluoromethyl)phenyl]ethyl}-1,5-dihydro-4H-pyrazolo[3,4-d]pyrimidin-4-one] — 4.1-fold lower, 17 nM
- COCc1nc2c(c(C)nn2C(C)c2ccc(C(F)(F)F)cc2)c(=O)[nH]1 (stereo not shown) [Example 48, 6-(Methoxymethyl)-3-methyl-1-{1-[4-(trifluoromethyl)phenyl]ethyl}-1,5-dihydro-4H-pyrazolo[3,4-d]pyrimidin-4-one] — 3.3-fold lower, 21 nM
- Cc1nn(C(C)c2ccc(C(F)(F)F)cc2)c2nc(-c3ccco3)[nH]c(=O)c12 (stereo not shown) [Example 49, 6-Furan-2-yl-3-methyl-1-{1-[4-(trifluoromethyl)phenyl]ethyl}-1,5-dihydro-4H-pyrazolo[3,4-d]pyrimidin-4-one] — 13-fold lower, 5.4 nM
- Cc1nn(C(C)c2ccc(C(F)(F)F)cc2)c2nc(-c3cnc4ccccc4n3)[nH]c(=O)c12 (stereo not shown) [Example 50, 3-Methyl-6-quinoxalin-2-yl-1-{1-[4-(trifluoromethyl)phenyl]ethyl}-1,5-dihydro-4H-pyrazolo[3,4-d]pyrimidin-4-one] — within 1.5-fold, 47 nM
- Cc1nn(C(C)c2ccc(C(F)(F)F)cc2)c2nc(CF)[nH]c(=O)c12 (stereo not shown) [Example 51, 6-(Fluoromethyl)-3-methyl-1-{1-[4-(trifluoromethyl)phenyl]ethyl}-1,5-dihydro-4H-pyrazolo[3,4-d]pyrimidin-4-one] — within 1.5-fold, 50 nM
- Cc1nn(C(C)c2ccc(C(F)(F)F)cc2)c2nc(-c3ccccn3)[nH]c(=O)c12 (stereo not shown) [Example 52, 3-Methyl-6-pyridin-2-yl-1-{1-[4-(trifluoromethyl)phenyl]ethyl}-1,5-dihydro-4H-pyrazolo[3,4-d]pyrimidin-4-one] — 3.9-fold lower, 18 nM
- Cc1nn(C(C)c2ccc(C(F)(F)F)cc2)c2nc(-c3cnn(C)c3)[nH]c(=O)c12 (stereo not shown) [Example 53, 3-Methyl-6-(1-methyl-1H-pyrazol-4-yl)-1-{1-[4-(trifluoromethyl)phenyl]ethyl}-1,5-dihydro-4H-pyrazolo[3,4-d]pyrimidin-4-one] — 4.1-fold lower, 17 nM
- Cc1nc(-c2nc3c(c(C)nn3C(C)c3ccc(C(F)(F)F)cc3)c(=O)[nH]2)c(C)o1 (stereo not shown) [Example 54, 6-(2,5-Dimethyl-1,3-oxazol-4-yl)-3-methyl-1-{1-[4-(trifluoromethyl)phenyl]ethyl}-1,5-dihydro-4H-pyrazolo[3,4-d]pyrimidin-4-one] — 5.8-fold lower, 12 nM
- Cc1nc2c(c(C(F)F)nn2C(C)c2ccc(C(F)(F)F)cc2)c(=O)[nH]1 (stereo not shown) [Example 166, 3-(Difluoromethyl)-6-methyl-1-{1-[4-(trifluoromethyl)phenyl]ethyl}-1,5-dihydro-4H-pyrazolo[3,4-d]pyrimidin-4-one] — 12-fold lower, ~5.9 nM
- Cc1ccc(C(C)n2nc(CF)c3c(=O)[nH]c(C)nc32)cc1 (stereo not shown) [Example 203, 3-(Fluoromethyl)-6-methyl-1-(1-p-tolylethyl)-1H-pyrazolo[3,4-d]pyrimidin-4(5H)-one] — 8.4-fold lower, 8.3 nM
- Cc1nc2c(c(CF)nn2C(C)c2ccc(C(F)(F)F)cc2)c(=O)[nH]1 (stereo not shown) [Example 204, 3-(Fluoromethyl)-6-methyl-1-{1-[4-(trifluoromethyl)phenyl]ethyl}-1,5-dihydro-4H-pyrazolo[3,4-d]pyrimidin-4-one] — 26-fold lower, 2.7 nM
- Cc1nc2c(c(CF)nn2C(C)c2ccc(C(F)(F)F)c(F)c2)c(=O)[nH]1 (stereo not shown) [Example 230, 1-(1-(3-Fluoro-4-(trifluoromethyl)phenyl)ethyl)-3-(fluoromethyl)-6-methyl-1H-pyrazolo[3,4-d]pyrimidin-4(5H)-one] — 47-fold lower, 1.5 nM
- Cc1nc2c(c(CF)nn2C(c2ccc(C(F)(F)F)cc2)C2CC2)c(=O)[nH]1 (stereo not shown) [Example 231, 1-(cyclopropyl(4-(trifluoromethyl)phenyl)methyl)-3-(fluoromethyl)-6-methyl-1H-pyrazolo[3,4-d]pyrimidin-4(5H)-one] — 180-fold lower, 0.39 nM
- Cc1nc2c(c(CCl)nn2C(c2ccc(C(F)(F)F)cc2)C2CC2)c(=O)[nH]1 (stereo not shown) [Example 232, 3-(chloromethyl)-1-(cyclopropyl(4-(trifluoromethyl)phenyl)methyl)-6-methyl-1H-pyrazolo[3,4-d]pyrimidin-4(5H)-one] — 260-fold lower, 0.27 nM

Same assay, conditions: Lab B; read-out: Human PDE2 Ki (nM) Lab B

Point of comparison: Cc1nc2c(c(CF)nn2C(c2ccc(C(F)(F)F)cc2)C2CC2)c(=O)[nH]1 (stereo not shown) [Example 231, 1-(cyclopropyl(4-(trifluoromethyl)phenyl)methyl)-3-(fluoromethyl)-6-methyl-1H-pyrazolo[3,4-d]pyrimidin-4(5H)-one], Ki 0.97 nM. Against it:
- Cc1nc2c(c(CO)nn2[C@@H](C)c2ccc(C(C)(C)C)cc2)c(=O)[nH]1 [Example 157, (S)-1-(1-(4-tert-Butylphenyl)ethyl)-3-(hydroxymethyl)-6-methyl-1H-pyrazolo[3,4-d]pyrimidin-4(5H)-one] — within 1.5-fold, 1.1 nM
- Cc1nc2c(c(CO)nn2[C@@H](C)c2ccc(OC(F)(F)F)cc2)c(=O)[nH]1 [Example 158, (S)-3-(Hydroxymethyl)-6-methyl-1-(1-(4-(trifluoromethoxy)phenyl)ethyl)-1H-pyrazolo[3,4-d]pyrimidin-4(5H)-one] — 3.2-fold higher, 3.1 nM
- Cc1nc2c(c(CO)nn2[C@H](c2ccc(C(C)(C)C)cc2)C(C)C)c(=O)[nH]1 [Example 159, (S)-1-(1-(4-tert-Butylphenyl)-2-methylpropyl)-3-(hydroxymethyl)-6-methyl-1H-pyrazolo[3,4-d]pyrimidin-4(5H)-one] — 2.1-fold higher, 2 nM
- Cc1nc2c(c(CO)nn2[C@@H](c2ccc(C(C)(C)C)cc2)C(C)C)c(=O)[nH]1 [Example 160, (R)-1-(1-(4-tert-Butylphenyl)-2-methylpropyl)-3-(hydroxymethyl)-6-methyl-1H-pyrazolo[3,4-d]pyrimidin-4(5H)-one] — 2.7-fold lower, 0.36 nM
- Cc1nc2c(c(C(F)F)nn2C(C)c2ccc(C(F)(F)F)cc2)c(=O)[nH]1 (stereo not shown) [Example 166, 3-(Difluoromethyl)-6-methyl-1-{1-[4-(trifluoromethyl)phenyl]ethyl}-1,5-dihydro-4H-pyrazolo[3,4-d]pyrimidin-4-one] — 9.8-fold higher, 9.5 nM
- Cc1nc2c(c(C(F)F)nn2C(c2ccc(OC(F)(F)F)c(F)c2)C2CC2)c(=O)[nH]1 (stereo not shown) [Example 193, 1-(Cyclopropyl(3-fluoro-4-(trifluoromethoxy)phenyl)methyl)-3-(difluoromethyl)-6-methyl-1H-pyrazolo[3,4-d]pyrimidin-4(5H)-one] — 1.9-fold higher, 1.8 nM
- COc1ccc(C(=O)c2nc3c(c(C(F)F)nn3C(C)c3ccc(C(F)(F)F)cc3)c(=O)[nH]2)cc1OC (stereo not shown) [Example 198, 3-(Difluoromethyl)-6-(3,4-dimethoxybenzoyl)-1-(1-(4-(trifluoromethyl)phenyl)ethyl)-1H-pyrazolo[3,4-d]pyrimidin-4(5H)-one] — 22-fold higher, 21 nM
- Cc1nc2c(c(CF)nn2C(c2ccc(C(F)(F)F)cc2)C(F)(F)F)c(=O)[nH]1 (stereo not shown) [Example 201, 3-(Fluoromethyl)-6-methyl-1-(2,2,2-trifluoro-1-(4-(trifluoromethyl)phenyl)-ethyl)-1H-pyrazolo[3,4-d]pyrimidin-4(5H)-one] — 2.7-fold higher, 2.6 nM
- Cc1nc2c(c(CF)nn2C2(c3ccc(C(F)(F)F)cc3)CCC2)c(=O)[nH]1 [Example 202, 3-(Fluoromethyl)-6-methyl-1-(1-(4-(trifluoromethyl)phenyl)cyclobutyl)-1H-pyrazolo[3,4-d]pyrimidin-4(5H)-one] — 3-fold higher, 2.9 nM
- Cc1ccc(C(C)n2nc(CF)c3c(=O)[nH]c(C)nc32)cc1 (stereo not shown) [Example 203, 3-(Fluoromethyl)-6-methyl-1-(1-p-tolylethyl)-1H-pyrazolo[3,4-d]pyrimidin-4(5H)-one] — 18-fold higher, 17 nM
- COCc1nc2c(c(CF)nn2C(C)c2ccc(C(F)(F)F)cc2)c(=O)[nH]1 (stereo not shown) [Example 205, 3-(Fluoromethyl)-6-(methoxymethyl)-1-{1-[4-(trifluoromethyl)phenyl]ethyl}-1,5-dihydro-4H-pyrazolo[3,4-d]pyrimidin-4-one] — 3.5-fold higher, 3.4 nM
- Cc1nc2c(c(CF)nn2C(C)c2ccc(C(F)(F)F)c(F)c2)c(=O)[nH]1 (stereo not shown) [Example 230, 1-(1-(3-Fluoro-4-(trifluoromethyl)phenyl)ethyl)-3-(fluoromethyl)-6-methyl-1H-pyrazolo[3,4-d]pyrimidin-4(5H)-one] — 3.7-fold higher, 3.6 nM
- Cc1nc2c(c(CCl)nn2C(c2ccc(C(F)(F)F)cc2)C2CC2)c(=O)[nH]1 (stereo not shown) [Example 232, 3-(chloromethyl)-1-(cyclopropyl(4-(trifluoromethyl)phenyl)methyl)-6-methyl-1H-pyrazolo[3,4-d]pyrimidin-4(5H)-one] — within 1.5-fold, 0.7 nM
